Read-outs that look alike come from different tables or passages of the source. Non-standard residues stand in square brackets, D forms with d. Residues, ends and D or L forms follow the SMILES beside them.

The nature of the data set: Label-free MST, peptide binding to SMA nanodiscs. The following applies: for Kd: label-free MST, SMA nanodiscs (anionic belt), 2500 nM AMP, apparent KD dominated by interaction with SMA polymer, mean ± SD of triplicates; for SMA KP, DMPC (MST) / SMA KP, DMPC/PG (MST): partition coefficient from initial fluorescence on MST instrument, SMA nanodiscs, hyperbolic fit, ± SD of triplicate fits. Here is the method:
The MST data for two nanodisc types, SMA and SMA-QA, were evaluated using the same methodology as the vesicle data, with FHot taken during the TRIC, and Fnorm plotted against log[lipid] and fit to Eq. (6).
The DMPC, and DMPC with 5% DMPG 21 mM vesicle stocks were used for the nanodisc preparation. The stocks were combined with an 8% SMA stock solution to yield a final SMA concentration of 1% for SMA nanodiscs. The stocks were combined with a 100 mg/mL SMA-QA stock to yield a final lipid:SMA-QA w/w ratio of 1:1.5. The combined SMA/SMA-QA and lipid mixture were incubated at room temperature overnight and purified by SEC. Fractions containing SMA/SMA-QA discs were concentrated using centrifugation filters. Total lipid concentration was determined by ^31P NMR (Figs. S4–S7). Nanodisc size was confirmed using a Malvern Zetasizer Nano ZS (Malvern Panalytical Ltd, Malvern, United Kingdom).
All MST measurements were conducted on a NanoTemper Monolith NT. Labelfree instrument, using Monolith NT. Labelfree standard treated zero background capillaries.
A dilution series of vesicles/nanodiscs was prepared from 3 mM to 100 nM lipid concentrations, comprising 15 discrete samples, and an additional zero lipid sample, for a total of 16 lipid concentrations. Final MST samples were prepared as a combination of 25 µL lipid solution and 25 µL 5 µM peptide solution (Table S1 in the Supporting Information).
MST measurements were conducted with excitation power set to 15%, with the MST power set to high. Laser time settings were: 3 s pre-laser, 30 s on time, and 3 s after heating. FHot was taken from the T-jump period after 1.5 s and FCold taken in the second prior to IR laser activation. For the evaluation of KP, the initial fluorescence was taken as the value reported during the period before the application of the laser. The MST response and initial fluorescence were extracted directly as a text file for further processing in MATLAB.
In a typical binding experiment that yields a sigmoidal curve, the Hill equation can be fitted to yield KD:[66]6 y=y0+EMaxLipid^n/KDn+Lipid^n where y is the MST response, y0 is the MST response of the AMP in an aqueous solution (i.e., in the absence of lipids), n is the Hill coefficient, and EMax is the maximal effect of the tested substrate. The removal of outlying MST response points was necessary. Erroneous points were identified by poor MST trace shapes or higher than expected initial fluorescence that was absent in the other replicates or subsequent points, but otherwise no further treatment of data was necessary. In all instances the MST response was plotted against log lipid concentration in nM and fit to Eq. (6).
The Kp of a molecule can be determined experimentally by observing changes in fluorescent intensity in the presence of an increasing concentration of lipid, and fitting to Eq. (8)[43].8 I/Iaq=1+KpVmLipidIL/Iaq/1+KPVmLipid
In Eq. (8) the fluorescence intensity of the AMP (I) is normalised to the fluorescence intensity of the AMP in an aqueous environment (Iaq), Vm is the molar volume of the lipids and IL is the fluorescence intensity of the AMP in the lipidic environment. For Vm, the average molar volume of the lipid composition is used. In the case of the DMPC only environments it is taken as the Vm of DMPC (1.023 nm^3), and in the DMPC-DMPG mixture it is the weighted average relative to the composition used (Vm DMPG = 0.997 nm^3)[54].

[1] abbreviates: read-out: SMA KD, DMPC/PG (MST).

With `N=C(N)NCCC[C@@H]1NC(=O)[C@H](CCCNC(=N)N)NC(=O)[C@H](Cc2c[nH]c3ccccc23)NC(=O)[C@H](Cc2c[nH]c3ccccc23)NC(=O)[C@H](Cc2c[nH]c3ccccc23)NC(=O)[C@H](CCCNC(=N)N)NC1=O` [compound 1] (cyclo(WWWRRR)), the “SMA KP, DMPC (MST)” value was 10.40 ± 1.52 × 10^3 and the “SMA KP, DMPC/PG (MST)” value was 10.27 ± 2.13 × 10^3. In addition, for the setting “read-out: SMA KD, DMPC (MST)”, the Kd came out at 1200 ± 500 nM. Moreover, the Kd under setting [1] stood at 2200 ± 400 nM.
On the same counts, the results for `N=C(N)NCCC[C@@H]1NC(=O)[C@H](Cc2c[nH]c3ccccc23)NC(=O)[C@H](CCCNC(=N)N)NC(=O)[C@H](Cc2c[nH]c3ccccc23)NC(=O)[C@H](CCCNC(=N)N)NC(=O)[C@H](Cc2c[nH]c3ccccc23)NC1=O` [compound 2] (cyclo(WRWRWR)) are 9.72 ± 2.69 × 10^3, 3.57 ± 0.36 × 10^3, 2700 ± 500 nM and 5600 ± 1100 nM.
On the same counts, the results for `NCCCC[C@@H]1NC(=O)[C@H](CCCCN)NC(=O)[C@H](Cc2c[nH]c3ccccc23)NC(=O)[C@H](Cc2c[nH]c3ccccc23)NC(=O)[C@H](Cc2c[nH]c3ccccc23)NC(=O)[C@H](CCCCN)NC1=O` [compound 3] (cyclo(WWWKKK)) are 2.34 ± 1.40 × 10^3, 4.21 ± 0.43 × 10^3, 1100 ± 300 nM and 1100 ± 500 nM.
Turning to `NCCCC[C@@H]1NC(=O)[C@H](Cc2c[nH]c3ccccc23)NC(=O)[C@H](CCCCN)NC(=O)[C@H](Cc2c[nH]c3ccccc23)NC(=O)[C@H](CCCCN)NC(=O)[C@H](Cc2c[nH]c3ccccc23)NC1=O` [compound 4] (cyclo(WKWKWK)), the “SMA KP, DMPC (MST)” value was 0.70 ± 0.11 × 10^3 and the “SMA KP, DMPC/PG (MST)” value was 1.14 ± 0.12 × 10^3. Also, under “read-out: SMA KD, DMPC (MST)”, the Kd was found to be 8600 ± 500 nM. The Kd under setting [1] came to 9800 ± 300 nM.
In the case of `CC(C)C[C@@H]1NC(=O)[C@@H](CCCNC(=N)N)NC(=O)[C@H](CCCCN)NC(=O)[C@H](CC(N)=O)NC(=O)[C@@H](Cc2c[nH]c3ccccc23)NC(=O)[C@H](Cc2c[nH]c3ccccc23)NC1=O` [compound 5] (cyclo(LW[dW]NK[dR])), the “SMA KP, DMPC (MST)” value is on record as 6.98 ± 1.24 × 10^3 and the “SMA KP, DMPC/PG (MST)” value is recorded as 4.75 ± 0.32 × 10^3.

(Values after publication PMC10400562, “Label-free measurement of antimicrobial peptide interactions with lipid vesicles and nanodiscs using microscale thermophoresis” (Scientific Reports, 2023).)
